In the kinase profiling compilation of Christmann-Franck et al. (2016):

Tests used:
Assay in all cases: radiometric filter-binding kinase assay, Kinaseprofiler
NUAK1 (human) = NUAK1 (human) (UniProt O60285); conditions: ATP 45 µM
CAMK1 (human) = CAMK1 (human) (UniProt Q14012); conditions: ATP 200 µM
MELK (human) = MELK (human) (UniProt Q14680); conditions: ATP 45 µM
RPS6KA1 KD1 KD2 (human) = RPS6KA1 KD1 KD2 (human) (UniProt Q15418); conditions: ATP 45 µM
CSNK1G1 (human) = CSNK1G1 (human) (UniProt Q9HCP0); conditions: ATP 15 µM
RPS6KA3 KD1 KD2 (human) = RPS6KA3 KD1 KD2 (human) (UniProt P51812); conditions: ATP 10 µM
MAPK13 (human) = MAPK13 (human) (UniProt O15264); conditions: ATP 15 µM
BRSK1 (human) = BRSK1 (human) (UniProt Q8TDC3); conditions: ATP 200 µM
SRPK3 (human) = SRPK3 (human) (UniProt Q9UPE1); conditions: ATP 15 µM
[1] = test system: AXL (human), P30530 [Q764R]; conditions: ATP 90 µM
MAPK11 (human) = MAPK11 (human) (UniProt Q15759); conditions: ATP 45 µM
NEK6 (human) = NEK6 (human) (UniProt Q9HC98); conditions: ATP 45 µM
PDGFRB (human) = PDGFRB (human) (UniProt P09619); conditions: ATP 200 µM
[2] = test system: BRSK2 (human), Q8IWQ3 [S251I]; conditions: ATP 70 µM
AURKB (human) = AURKB (human) (UniProt Q96GD4); conditions: ATP 10 µM
NEK2 (human) = NEK2 (human) (UniProt P51955); conditions: ATP 120 µM
NEK7 (human) = NEK7 (human) (UniProt Q8TDX7); conditions: ATP 45 µM
MKNK2 (human) = MKNK2 (human) (UniProt Q9HBH9); conditions: ATP 120 µM
SRPK1 (human) = SRPK1 (human) (UniProt Q96SB4); conditions: ATP 10 µM
PRKCG (human) = PRKCG (human) (UniProt P05129); conditions: ATP 15 µM
MUSK (human) = MUSK (human) (UniProt O15146); conditions: ATP 155 µM
MAP3K7 (human) = MAP3K7 (human) (UniProt O43318); conditions: ATP 45 µM
AURKC (human) = AURKC (human) (UniProt Q9UQB9); conditions: ATP 15 µM
CDK3 CCNE1 (human) = CDK3 CCNE1 (human) (UniProt Q00526+P24864); conditions: ATP 200 µM
PDPK1 (human) = PDPK1 (human) (UniProt O15530); conditions: ATP 10 µM
MAP2K1 (human) = MAP2K1 (human) (UniProt Q02750); conditions: ATP 10 µM
IGF1R (human) = IGF1R (human) (UniProt P08069)
PRKD2 (human) = PRKD2 (human) (UniProt Q9BZL6); conditions: ATP 155 µM
STK24 (human) = STK24 (human) (UniProt Q9Y6E0); conditions: ATP 15 µM
PDGFRA (human) = PDGFRA (human) (UniProt P16234); conditions: ATP 120 µM
FLT1 (human) = FLT1 (human) (UniProt P17948); conditions: ATP 200 µM
FRK (human) = FRK (human) (UniProt P42685); conditions: ATP 155 µM

Chain of IGF1R (human) (P08069 whole entry, looked up): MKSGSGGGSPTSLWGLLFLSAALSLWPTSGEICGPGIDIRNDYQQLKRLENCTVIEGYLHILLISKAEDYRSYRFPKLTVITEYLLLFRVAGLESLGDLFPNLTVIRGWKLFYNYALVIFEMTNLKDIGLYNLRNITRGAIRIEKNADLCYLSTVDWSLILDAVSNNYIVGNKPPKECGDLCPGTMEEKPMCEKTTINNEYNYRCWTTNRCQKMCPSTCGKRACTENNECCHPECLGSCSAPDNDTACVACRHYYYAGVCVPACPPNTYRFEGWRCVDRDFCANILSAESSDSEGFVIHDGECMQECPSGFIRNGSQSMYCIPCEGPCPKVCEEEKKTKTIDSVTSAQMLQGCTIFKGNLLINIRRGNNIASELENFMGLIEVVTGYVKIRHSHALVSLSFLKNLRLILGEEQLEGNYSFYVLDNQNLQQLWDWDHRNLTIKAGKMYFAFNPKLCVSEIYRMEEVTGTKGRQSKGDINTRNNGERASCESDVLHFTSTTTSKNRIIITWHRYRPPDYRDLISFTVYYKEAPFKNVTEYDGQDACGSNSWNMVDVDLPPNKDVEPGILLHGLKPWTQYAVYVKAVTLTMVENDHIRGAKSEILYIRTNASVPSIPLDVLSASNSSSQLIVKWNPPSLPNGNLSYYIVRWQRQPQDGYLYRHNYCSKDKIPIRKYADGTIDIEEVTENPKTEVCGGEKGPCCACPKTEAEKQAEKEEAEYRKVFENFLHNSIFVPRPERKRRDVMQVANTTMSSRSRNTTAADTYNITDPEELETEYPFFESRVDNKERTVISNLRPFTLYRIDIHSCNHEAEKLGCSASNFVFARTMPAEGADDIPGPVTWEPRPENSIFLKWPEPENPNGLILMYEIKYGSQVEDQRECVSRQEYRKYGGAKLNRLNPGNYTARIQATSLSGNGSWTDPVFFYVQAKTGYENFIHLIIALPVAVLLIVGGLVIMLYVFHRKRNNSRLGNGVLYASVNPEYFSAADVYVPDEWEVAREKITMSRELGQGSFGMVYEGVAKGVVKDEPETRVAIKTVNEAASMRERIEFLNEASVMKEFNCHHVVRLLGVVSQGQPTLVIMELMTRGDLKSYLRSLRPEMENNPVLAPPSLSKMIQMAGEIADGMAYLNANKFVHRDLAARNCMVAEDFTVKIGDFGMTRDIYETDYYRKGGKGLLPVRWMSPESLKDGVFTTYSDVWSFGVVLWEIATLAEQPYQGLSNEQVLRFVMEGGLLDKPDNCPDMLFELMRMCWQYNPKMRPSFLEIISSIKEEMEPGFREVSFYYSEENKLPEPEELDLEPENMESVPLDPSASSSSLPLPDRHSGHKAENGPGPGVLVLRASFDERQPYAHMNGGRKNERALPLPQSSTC
Chain of MKNK2 (human) (Q9HBH9 whole entry, looked up): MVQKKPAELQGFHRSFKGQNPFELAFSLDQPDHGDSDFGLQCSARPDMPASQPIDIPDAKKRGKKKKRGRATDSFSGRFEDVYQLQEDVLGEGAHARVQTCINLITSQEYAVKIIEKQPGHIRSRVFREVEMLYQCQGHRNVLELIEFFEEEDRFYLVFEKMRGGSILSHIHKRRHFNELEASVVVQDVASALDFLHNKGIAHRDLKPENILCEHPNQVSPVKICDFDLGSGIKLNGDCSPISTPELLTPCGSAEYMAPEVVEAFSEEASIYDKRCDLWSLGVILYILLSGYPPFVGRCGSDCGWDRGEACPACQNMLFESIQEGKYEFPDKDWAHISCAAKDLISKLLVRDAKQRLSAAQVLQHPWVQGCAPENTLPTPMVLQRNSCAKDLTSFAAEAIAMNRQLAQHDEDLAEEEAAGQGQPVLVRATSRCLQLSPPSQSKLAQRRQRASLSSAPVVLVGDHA
Chain of MELK (human) (Q14680 whole entry, looked up): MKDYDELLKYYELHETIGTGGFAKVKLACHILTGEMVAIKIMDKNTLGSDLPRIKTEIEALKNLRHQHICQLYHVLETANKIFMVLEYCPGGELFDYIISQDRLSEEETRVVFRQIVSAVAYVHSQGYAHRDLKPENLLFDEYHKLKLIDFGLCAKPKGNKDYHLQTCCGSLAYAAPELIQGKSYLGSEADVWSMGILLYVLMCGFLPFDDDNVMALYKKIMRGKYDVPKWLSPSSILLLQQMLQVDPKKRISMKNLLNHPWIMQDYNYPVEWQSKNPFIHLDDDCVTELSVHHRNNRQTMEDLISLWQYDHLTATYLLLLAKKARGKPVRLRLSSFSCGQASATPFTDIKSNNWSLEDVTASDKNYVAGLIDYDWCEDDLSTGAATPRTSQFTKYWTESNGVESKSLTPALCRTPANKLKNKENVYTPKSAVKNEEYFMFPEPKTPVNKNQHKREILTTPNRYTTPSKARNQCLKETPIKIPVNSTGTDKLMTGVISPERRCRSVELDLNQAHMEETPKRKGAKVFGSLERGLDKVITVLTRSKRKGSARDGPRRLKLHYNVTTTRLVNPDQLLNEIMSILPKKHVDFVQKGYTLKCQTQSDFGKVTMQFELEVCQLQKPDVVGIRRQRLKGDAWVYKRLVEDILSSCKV
Chain of PRKD2 (human) (Q9BZL6 whole entry, looked up): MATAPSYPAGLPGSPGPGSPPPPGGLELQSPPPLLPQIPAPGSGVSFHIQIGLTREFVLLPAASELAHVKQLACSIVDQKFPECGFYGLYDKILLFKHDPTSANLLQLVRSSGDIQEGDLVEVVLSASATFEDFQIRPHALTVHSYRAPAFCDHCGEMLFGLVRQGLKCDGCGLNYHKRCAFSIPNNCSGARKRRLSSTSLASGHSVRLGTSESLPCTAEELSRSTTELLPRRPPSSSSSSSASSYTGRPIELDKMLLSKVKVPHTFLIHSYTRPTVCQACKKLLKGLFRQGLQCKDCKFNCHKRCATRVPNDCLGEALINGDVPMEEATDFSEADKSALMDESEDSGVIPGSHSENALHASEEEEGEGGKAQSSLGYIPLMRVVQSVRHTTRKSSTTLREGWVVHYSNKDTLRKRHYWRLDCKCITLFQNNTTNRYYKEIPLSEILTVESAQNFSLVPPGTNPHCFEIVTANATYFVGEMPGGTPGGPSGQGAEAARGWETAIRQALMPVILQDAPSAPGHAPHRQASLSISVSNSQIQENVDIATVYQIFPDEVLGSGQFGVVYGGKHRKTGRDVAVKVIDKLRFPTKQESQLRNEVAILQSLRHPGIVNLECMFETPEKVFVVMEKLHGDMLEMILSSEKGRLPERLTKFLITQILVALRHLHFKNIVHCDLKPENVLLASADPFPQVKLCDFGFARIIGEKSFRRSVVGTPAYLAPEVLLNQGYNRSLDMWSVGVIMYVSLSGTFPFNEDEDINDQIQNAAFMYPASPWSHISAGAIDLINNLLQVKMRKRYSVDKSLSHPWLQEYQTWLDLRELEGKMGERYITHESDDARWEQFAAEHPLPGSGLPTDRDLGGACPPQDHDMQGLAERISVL
Chain of PDPK1 (human) (O15530 whole entry, looked up): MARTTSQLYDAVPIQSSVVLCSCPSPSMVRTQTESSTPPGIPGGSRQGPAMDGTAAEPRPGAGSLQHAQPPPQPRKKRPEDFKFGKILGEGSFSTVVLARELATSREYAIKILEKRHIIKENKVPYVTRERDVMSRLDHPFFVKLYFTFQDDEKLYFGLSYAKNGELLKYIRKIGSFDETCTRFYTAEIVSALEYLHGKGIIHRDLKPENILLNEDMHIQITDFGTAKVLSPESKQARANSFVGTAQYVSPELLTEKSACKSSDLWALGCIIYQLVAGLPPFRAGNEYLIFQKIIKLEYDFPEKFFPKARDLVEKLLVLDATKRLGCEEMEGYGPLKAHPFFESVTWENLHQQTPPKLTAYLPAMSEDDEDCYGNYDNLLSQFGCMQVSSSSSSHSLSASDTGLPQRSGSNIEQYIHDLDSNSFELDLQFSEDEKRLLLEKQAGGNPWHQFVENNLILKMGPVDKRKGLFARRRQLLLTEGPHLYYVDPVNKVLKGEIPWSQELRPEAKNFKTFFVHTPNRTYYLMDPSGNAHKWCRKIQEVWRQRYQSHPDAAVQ
Chain of MAPK13 (human) (O15264 whole entry, looked up): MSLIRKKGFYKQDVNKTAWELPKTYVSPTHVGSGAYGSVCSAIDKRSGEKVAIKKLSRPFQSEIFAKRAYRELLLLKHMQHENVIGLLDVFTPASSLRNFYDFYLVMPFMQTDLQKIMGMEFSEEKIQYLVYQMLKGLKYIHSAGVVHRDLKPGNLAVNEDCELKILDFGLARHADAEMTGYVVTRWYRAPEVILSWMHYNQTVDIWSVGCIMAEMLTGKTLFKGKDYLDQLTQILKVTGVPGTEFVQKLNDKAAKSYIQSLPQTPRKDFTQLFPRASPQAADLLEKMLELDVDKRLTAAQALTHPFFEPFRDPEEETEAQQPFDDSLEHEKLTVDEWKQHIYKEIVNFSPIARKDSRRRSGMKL
Chain of NEK7 (human) (Q8TDX7 whole entry, looked up): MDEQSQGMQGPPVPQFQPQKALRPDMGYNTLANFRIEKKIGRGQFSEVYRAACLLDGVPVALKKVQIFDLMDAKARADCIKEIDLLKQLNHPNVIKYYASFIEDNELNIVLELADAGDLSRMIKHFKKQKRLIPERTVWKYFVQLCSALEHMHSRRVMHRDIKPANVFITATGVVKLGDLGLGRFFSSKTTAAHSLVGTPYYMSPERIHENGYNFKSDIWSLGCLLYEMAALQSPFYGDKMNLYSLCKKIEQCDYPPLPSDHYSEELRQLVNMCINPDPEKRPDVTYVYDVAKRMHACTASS
Chain of NEK2 (human) (P51955 whole entry, looked up): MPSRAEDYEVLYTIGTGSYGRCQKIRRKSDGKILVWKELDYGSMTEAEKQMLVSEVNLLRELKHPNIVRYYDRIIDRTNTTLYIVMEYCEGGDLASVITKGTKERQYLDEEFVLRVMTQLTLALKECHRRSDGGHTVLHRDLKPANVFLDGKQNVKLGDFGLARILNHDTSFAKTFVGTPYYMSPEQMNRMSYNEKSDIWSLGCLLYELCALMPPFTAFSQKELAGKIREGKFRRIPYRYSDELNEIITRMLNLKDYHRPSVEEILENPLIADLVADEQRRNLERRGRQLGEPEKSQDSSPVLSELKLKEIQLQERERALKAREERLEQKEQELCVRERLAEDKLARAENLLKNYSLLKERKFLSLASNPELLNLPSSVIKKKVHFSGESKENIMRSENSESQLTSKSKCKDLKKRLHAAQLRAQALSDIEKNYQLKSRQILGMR

O=C1Nc2ccccc2/C1=C1\Nc2ccccc2\C1=N/O
residual activity (NUAK1 (human); compound 1.0 µM): 4%
residual activity (NUAK1 (human); compound 10.0 µM): 7%
residual activity (CAMK1 (human); compound 1.0 µM): 72%
residual activity (CAMK1 (human); compound 10.0 µM): 21%
residual activity (MELK (human); compound 1.0 µM): 15%
residual activity (MELK (human); compound 10.0 µM): 7%
residual activity (RPS6KA1 KD1 KD2 (human); compound 1.0 µM): 40%
residual activity (RPS6KA1 KD1 KD2 (human); compound 10.0 µM): 6%
residual activity (CSNK1G1 (human); compound 1.0 µM): 57%
residual activity (CSNK1G1 (human); compound 10.0 µM): 19%
residual activity (RPS6KA3 KD1 KD2 (human); compound 1.0 µM): 50%
residual activity (RPS6KA3 KD1 KD2 (human); compound 10.0 µM): 7%
residual activity (MAPK13 (human); compound 1.0 µM): 90%
residual activity (MAPK13 (human); compound 10.0 µM): 82%
residual activity (BRSK1 (human); compound 1.0 µM): 13%
residual activity (BRSK1 (human); compound 10.0 µM): 12%
residual activity (SRPK3 (human); compound 1.0 µM): 85%
residual activity (SRPK3 (human); compound 10.0 µM): 46%
residual activity ([1]; compound 1.0 µM): 17%
residual activity ([1]; compound 10.0 µM): 8%
residual activity (MAPK11 (human); compound 1.0 µM): 101%
residual activity (MAPK11 (human); compound 10.0 µM): 90%
residual activity (NEK6 (human); compound 1.0 µM): 91%
residual activity (NEK6 (human); compound 10.0 µM): 103%
residual activity (PDGFRB (human); compound 1.0 µM): 84%
residual activity (PDGFRB (human); compound 10.0 µM): 26%
residual activity ([2]; compound 1.0 µM): 10%
residual activity ([2]; compound 10.0 µM): 5%
residual activity (AURKB (human); compound 1.0 µM): 1%
residual activity (AURKB (human); compound 10.0 µM): -2%
residual activity (NEK2 (human); compound 1.0 µM): 93%
residual activity (NEK2 (human); compound 10.0 µM): 83%
residual activity (NEK7 (human); compound 1.0 µM): 106%
residual activity (NEK7 (human); compound 10.0 µM): 102%
residual activity (MKNK2 (human); compound 1.0 µM): 62%
residual activity (MKNK2 (human); compound 10.0 µM): 18%
residual activity (SRPK1 (human); compound 1.0 µM): 90%
residual activity (SRPK1 (human); compound 10.0 µM): 66%
residual activity (PRKCG (human); compound 1.0 µM): 92%
residual activity (PRKCG (human); compound 10.0 µM): 73%
residual activity (MUSK (human); compound 1.0 µM): 58%
residual activity (MUSK (human); compound 10.0 µM): 5%
residual activity (MAP3K7 (human); compound 1.0 µM): 64%
residual activity (MAP3K7 (human); compound 10.0 µM): 71%
residual activity (AURKC (human); compound 1.0 µM): 61%
residual activity (AURKC (human); compound 10.0 µM): 49%
residual activity (CDK3 CCNE1 (human); compound 1.0 µM): 5%
residual activity (CDK3 CCNE1 (human); compound 10.0 µM): 0%
residual activity (PDPK1 (human); compound 1.0 µM): 53%
residual activity (PDPK1 (human); compound 10.0 µM): 9%
residual activity (MAP2K1 (human); compound 1.0 µM): 64%
residual activity (MAP2K1 (human); compound 10.0 µM): 55%
residual activity (IGF1R (human); compound 1.0 µM, ATP 45 µM): 40%
residual activity (IGF1R (human); compound 1.0 µM, ATP 200 µM): 37%
residual activity (IGF1R (human); compound 10.0 µM, ATP 45 µM): 20%
residual activity (IGF1R (human); compound 10.0 µM, ATP 200 µM): 26%
residual activity (PRKD2 (human); compound 1.0 µM): 109%
residual activity (PRKD2 (human); compound 10.0 µM): 98%
residual activity (STK24 (human); compound 1.0 µM): 42%
residual activity (STK24 (human); compound 10.0 µM): 10%
residual activity (PDGFRA (human); compound 1.0 µM): 87%
residual activity (PDGFRA (human); compound 10.0 µM): 37%
residual activity (FLT1 (human); compound 1.0 µM): 1%
residual activity (FLT1 (human); compound 10.0 µM): 0%
residual activity (FRK (human); compound 1.0 µM): 13%
residual activity (FRK (human); compound 10.0 µM): 6%
